Source: paper PMC6222997, “Cloning, purification, and characterization of an organic solvent-tolerant chitinase, MtCh509, from Microbulbifer thermotolerans DAU221” (Biotechnology for Biofuels, 2018)

Target: T1, MtCh509 (Microbulbifer thermotolerans, UniProt A0A143HNF3)
T1 construct: gene A3224_11035; full-length precursor 509 aa; cloned without signal peptide, N-terminal His6 (pCold I), E. coli BL21(DE3); ~60 kDa; GH18 catalytic domain plus ChtBD3
Assay: TLC of hydrolysis products
Type: biochemical
Conditions: 50 mM citrate buffer pH 5.0, 55 °C; 0.3 μg enzyme

T1 sequence (A0A143HNF3 entry or part of it): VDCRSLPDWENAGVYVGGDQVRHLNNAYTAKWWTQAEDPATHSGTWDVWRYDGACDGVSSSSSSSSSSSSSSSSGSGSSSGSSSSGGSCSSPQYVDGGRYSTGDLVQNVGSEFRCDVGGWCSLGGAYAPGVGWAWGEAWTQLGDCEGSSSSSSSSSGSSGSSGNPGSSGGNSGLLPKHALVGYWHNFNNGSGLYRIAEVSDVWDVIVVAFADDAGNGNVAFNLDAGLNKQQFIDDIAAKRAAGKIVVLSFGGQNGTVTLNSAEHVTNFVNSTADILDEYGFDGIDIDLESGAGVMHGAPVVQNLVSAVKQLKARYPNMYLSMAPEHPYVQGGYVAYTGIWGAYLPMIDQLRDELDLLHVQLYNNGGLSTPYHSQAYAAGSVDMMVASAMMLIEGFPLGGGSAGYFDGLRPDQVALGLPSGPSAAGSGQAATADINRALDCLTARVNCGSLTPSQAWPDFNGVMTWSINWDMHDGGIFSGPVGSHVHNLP

Compound: CC(=O)N[C@H]1[C@H](O[C@H]2[C@H](O)[C@@H](NC(C)=O)[C@H](O[C@H]3[C@H](O)[C@@H](NC(C)=O)C(O)O[C@@H]3CO)O[C@@H]2CO)O[C@H](CO)[C@@H](O[C@@H]2O[C@H](CO)[C@@H](O[C@@H]3O[C@H](CO)[C@@H](O[C@@H]4O[C@H](CO)[C@@H](O)[C@H](O)[C@H]4NC(C)=O)[C@H](O)[C@H]3NC(C)=O)[C@H](O)[C@H]2NC(C)=O)[C@@H]1O (stereo partly shown) [NAG6]
- TLC of hydrolysis products: NAG6 (Fig. 5E) was finally degraded to NAG3 and NAG2
